In BindingDB's records for doi:10.1016/j.ejmech.2021.113695 (Griffith University, 2021):

Experiment: Inhibition of NS2B-NS3 intramolecular cleavage in Dengue virus 2 infected in LLC-MK2 cells assessed as inhibition of viral replication measured afer 48 hrs by ELISA

O=C1c2c(O)ccc([N+](=O)[O-])c2C(=O)c2c([N+](=O)[O-])ccc(O)c21
EC50: 4.2 µM
